Measured values taken from US9345703B2, “Kappa opioid receptor effectors and uses thereof” (University of Kansas, priority 2011, dated 2016).

How the values were obtained:
KOR [1] = target: T1, KOR (Homo sapiens, UniProt P41145); assay: High content imaging β-arrestin translocation assay, KOR antagonist (KOR HCS); type: cell-based; conditions: antagonist; average; read-out: Potency, Target KOR HCS
Text: (§1) In this campaign, two assay platforms were employed to evaluate KOR activity and selectivity: the KOR1 DISCOVERX β-Arrestin […] assay and an imaging based β-arrestin translocation assay for confirmatory and selectivity assays. The KOR1 DISCOVERX β-Arrestin […] assay is a commercial platform for direct measurement of GPCR (G protein-coupled receptor) activation by detection of β-Arrestin binding to the KOR. […] In cells that stably express these fusion proteins, ligand stimulation results in the recruitment of β-Arrestin by the GPCR. This interaction encourages the complementation of the two β-galactosidase fragments resulting in the formation of a functional enzyme that converts substrate in the assay medium to a detectable signal. The imaging based high-content β-arrestin translocation assay is based upon the redistribution of β-Arrestin linked to green fluorescent protein (GFP) to the cell surface and detection (Barak, et al. (1997) J. Biol. Chem. 272:27497-27500).
(§2) Initially, a portion (approximately 290,000 compounds) of the MLSMR compound collection was tested in the KOR1 DISCOVERX β-arrestin primary kappa opioid (KOP) agonist and antagonist screens (PUBCHEM AID 1777 and 1778, respectively) at a single concentration point (10 μM). […] These compounds were concurrently tested in a β-galactosidase counterscreen assay (PUBCHEM AID 1966) to assess the possibility that these compounds might inhibit the reporting enzyme. […] The KOR:DOR:MOR selectivity of the compounds was determined using the analogous β-arrestin translocation assays for the DOR (PUBCHEM AID 2370 and 2357, for agonists and antagonist, respectively) and the MOR (PUBCHEM AID 2352 and 2420, for agonists and antagonists, respectively).

MOR [2] = target: T2, MOR (Homo sapiens, UniProt P35372); assay: High content imaging β-arrestin translocation assay, MOR antagonist (MOR HCS); type: cell-based; conditions: antagonist; average; read-out: Potency, Antitarget MOR HCS
Text: as §1, §2

KOR [3] = target: T1, KOR; assay: KOR1 DISCOVERX β-Arrestin […] assay, antagonist mode (KOR DRX); type: cell-based; conditions: antagonist; average; read-out: Potency, Target KOR DRX
Text: as §1, §2

DOR = DOR (Homo sapiens, UniProt P41143); assay: High content imaging β-arrestin translocation assay, DOR antagonist (DOR HCS); type: cell-based; conditions: antagonist; average; read-out: Potency, Antitarget DOR HCS
Text: as §1, §2

KOR [4] = target: T1, KOR; assay: DISCOVERX β-arrestin […] assay, agonist mode (KOR DRx); type: cell-based; conditions: for EC50: agonist, n = 3, read-out: Average Potency KOR DRx; for Emax (%): at highest concentration tested, compared to dynorphin A (Emax=100%)
Text: as §1, with “signal.” for “signal. The imaging based high-content β-arrestin translocation assay is based upon the redistribution of β-Arrestin linked to green fluorescent protein (GFP) to the cell surface and detection (Barak, et al. (1997) J. Biol. Chem. 272:27497-27500).”

KOR [5] = target: T1, KOR; assay: Binding affinity Ki of Table 9
MOR [6] = target: T2, MOR; assay: High content imaging based β-arrestin translocation assay, MOR agonist (MOR HCS); type: cell-based; conditions: n = 2, read-out: Average Potency MOR HCS
Text: as §1, §2

KOR [7] = target: T1, KOR; assay: High content imaging based β-arrestin translocation assay, KOR agonist (KOR HCS); type: cell-based; conditions: n = 2, read-out: Average Potency KOR HCS
Text: as §1, §2

Chain of DOR (P41143 whole entry): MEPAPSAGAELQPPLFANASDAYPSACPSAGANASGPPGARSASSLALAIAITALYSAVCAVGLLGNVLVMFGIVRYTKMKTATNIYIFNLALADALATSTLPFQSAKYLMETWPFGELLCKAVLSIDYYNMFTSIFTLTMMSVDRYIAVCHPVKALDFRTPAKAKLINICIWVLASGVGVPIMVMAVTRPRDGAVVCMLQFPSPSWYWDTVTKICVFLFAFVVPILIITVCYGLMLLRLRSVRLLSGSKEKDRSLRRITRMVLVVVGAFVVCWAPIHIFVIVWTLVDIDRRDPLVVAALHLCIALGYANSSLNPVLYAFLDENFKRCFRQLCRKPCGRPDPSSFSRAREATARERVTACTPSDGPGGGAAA
T2 sequence (P35372 whole entry): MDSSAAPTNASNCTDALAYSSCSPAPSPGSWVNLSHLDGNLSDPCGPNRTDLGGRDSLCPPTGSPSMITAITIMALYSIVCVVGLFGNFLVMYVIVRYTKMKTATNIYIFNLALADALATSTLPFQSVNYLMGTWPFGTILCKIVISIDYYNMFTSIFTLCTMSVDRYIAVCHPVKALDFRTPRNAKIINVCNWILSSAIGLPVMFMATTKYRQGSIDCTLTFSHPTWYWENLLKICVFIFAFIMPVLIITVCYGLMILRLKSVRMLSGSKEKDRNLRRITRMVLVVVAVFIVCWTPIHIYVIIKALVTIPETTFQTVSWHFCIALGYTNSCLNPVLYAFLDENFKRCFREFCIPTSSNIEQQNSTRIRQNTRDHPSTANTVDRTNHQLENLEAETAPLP
T1 sequence (P41145 whole entry, the tested form may be a part): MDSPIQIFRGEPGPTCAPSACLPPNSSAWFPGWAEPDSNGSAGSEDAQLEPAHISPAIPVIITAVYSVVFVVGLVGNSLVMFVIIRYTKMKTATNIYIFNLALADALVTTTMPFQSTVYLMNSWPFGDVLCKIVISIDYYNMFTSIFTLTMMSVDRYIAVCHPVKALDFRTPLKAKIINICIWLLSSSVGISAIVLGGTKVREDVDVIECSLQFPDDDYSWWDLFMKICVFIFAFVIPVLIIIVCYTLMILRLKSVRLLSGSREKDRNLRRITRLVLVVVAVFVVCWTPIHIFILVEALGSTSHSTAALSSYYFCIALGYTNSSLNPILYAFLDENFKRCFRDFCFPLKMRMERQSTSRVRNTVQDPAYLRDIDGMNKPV

Row | Structure (SMILES) | IC50 (KOR [1]) | IC50 (MOR [2]) | IC50 (KOR [3]) | IC50 (DOR) | EC50 (KOR [4]) | Ki (KOR [5]) | EC50 (MOR [6]) | EC50 (KOR [7]) | Emax (%) (KOR [4])
1 | O=C(Cn1c(=O)c2cccn2c2cc(Br)cnc21)NCCCN1CCN(c2ccc3c(c2)OCO3)CC1 [Compound 1{17}] | 0.15 µM | > 32 µM | 3.11 µM | > 32 µM |  |  |  |  | 
2 | CN1CCN(CCCNC(=O)Cn2c(=O)c3cccn3c3cccnc32)CC1 [Compound 1{20}] | > 32 µM | > 32 µM | > 20 µM | > 32 µM |  |  |  |  | 
3 | COc1cccc(CSc2nnc(-c3ccccn3)n2Cc2ccco2)c1 [Compound 2{37}] |  |  |  |  | > 17.6 µM | 0.067 µM | > 32 µM | > 32 µM | 
4 | COc1ccc(N2CCN(CCCNC(=O)Cn3c(=O)c4cccn4c4c(C)ccnc43)CC2)c(OC)c1 [1{4}] | 0.004 µM | 30.9 µM | 0.19 µM | > 32 µM |  |  |  |  | 
5 | O=C(Cn1c(=O)c2cccn2c2cc(Br)cnc21)NCCCN1CCN(c2ccc(Cl)cc2)CC1 [Compound 1{15}] | > 32 µM | 5.32 µM | > 20 µM | > 32 µM |  |  |  |  | 
6 | Fc1cc(F)cc(CSc2nnc(-c3ccccn3)n2Cc2cccs2)c1 [Compound 2{17}] |  |  |  |  | 7.2 µM | 0.094 µM | > 32 µM | > 17.8 µM | ~150%
7 | O=C(Cn1c(=O)c2cccn2c2cccnc21)NCCCN1CCN(c2ccc(Cl)cc2)CC1 [Compound 1{11}] | 0.096 µM | > 32 µM | 5.18 µM | > 32 µM |  |  |  |  | 
8 | Fc1cccc(F)c1CSc1nnc(-c2ccccn2)n1Cc1cccs1 [Compound 2{42}] |  |  |  |  | > 19 µM | 0.078 µM | > 32 µM | 20.9 µM | 
9 | Cc1ccc(CSc2nnc(-c3ccccn3)n2Cc2ccco2)cc1 [Compound 2{12}] |  |  |  |  | 6.2 ± 1.26 µM | 0.016 µM | > 32 µM | 5.21 µM | ~150%
10 | Cc1ccc(N2CCN(CCCNC(=O)Cn3c(=O)c4cccn4c4c(C)ccnc43)CC2)cc1 [1{7}] | 2.28 µM | > 32 µM | 0.88 µM | > 32 µM |  |  |  |  | 
11 | Cc1ccc(Cl)cc1N1CCN(CCCNC(=O)Cn2c(=O)c3cccn3c3cccnc32)CC1 [1{24}] | > 32 µM | 3.98 µM | > 20 µM | > 32 µM |  |  |  |  | 
12 | COc1ccc(N2CCN(CCCNC(=O)Cn3c(=O)c4cccn4c4cc(Br)cnc43)CC2)cc1 [1{14}] | 0.69 µM | 10.3 µM | 3.05 µM | > 32 µM |  |  |  |  | 
13 | O=C(Cn1c(=O)c2cccn2c2cccnc21)NCCCN1CCN(c2ccc3c(c2)OCO3)CC1 [Compound 1{10}] | 0.78 µM | > 32 µM | 4.23 µM | > 32 µM |  |  |  |  | 
14 | O=C(Cn1c(=O)c2cccn2c2cccnc21)NCCCN1CCC(Cc2ccccc2)CC1 [Compound 1{22}] |  | > 32 µM | 4.78 µM | > 32 µM |  |  |  |  | 
15 | Cc1ccccc1CSc1nnc(-c2ccccn2)n1Cc1cccs1 [Compound 2{36}] |  |  |  |  | > 16 µM | 0.068 µM | > 32 µM | 14.5 µM | 
16 | COc1ccc(N2CCN(CCCNC(=O)Cn3c(=O)c4cccn4c4cccnc43)CC2)c(OC)c1 [1{9}] | 0.49 µM | 10.8 µM | 2.65 µM | > 32 µM |  |  |  |  | 
17 | COc1ccc(N2CCN(CCCCNC(=O)Cn3c(=O)c4cccn4c4c(C)ccnc43)CC2)cc1 [1{27}] | 0.005 µM | > 32 µM | 1.25 µM | > 32 µM |  |  |  |  | 
18 | COc1ccc(CSc2nnc(-c3ccccn3)n2Cc2cccs2)cc1 [Compound 2{21}] |  |  |  |  | 9.62 ± 1.32 µM | 0.0071 µM | > 32 µM | 5.98 µM | ~130%
19 | COc1ccc(N2CCN(CCCNC(=O)Cn3c(=O)c4cccn4c4cc(Br)cnc43)CC2)c(OC)c1 [1{16}] | 3.02 µM | 10.2 µM | 2.82 µM | > 32 µM |  |  |  |  | 
